Marks after values point to notes of the source that are not given here. Where a SMILES comes first, the peptide text is derived from it. Where no end group is shown, it is not given here.
Target: T1, ACE (Homo sapiens, UniProt P12821)
T1 construct: purchased Shanghai Yuanye Biotechnology Co., Ltd
Experiment: ACE inhibition rate / IC50 determination with FAPGG substrate (absorbance 340 nm)
Format: biochemical
Conditions: for Inhibitory effect as % of the positive control: ACE inhibition rate relative to captopril; for IC50 / Inhibition Rate of ACE: synthesized peptides, captopril as positive control; for Inhibition Rate of ACE: test concentration not given
Experimental: The ACE inhibition rate was determined according to the method developed by Wang. In brief, 1 mmol/L FAPGG solution, 0.1 U/mL ACE solution, and F. velutipes protein solution were mixed in 80 mmol/L HEPES buffer (pH 8.2), and the mixture was added to 96-well plates according to Table 1. The absorbance value at the wavelength of 340 nm at 37 °C and the absorbance value after 30 min of reaction were measured. The calculation formula is as follows: (2) Inhibition Rate of ACE%=(1−ΔA/ΔB)×100
In the formula, ΔA = A1 − A2; ΔB = B1 − B2. ΔA was the absorbance value of the sample pore solution; ΔB was the absorbance value of the control pore solution. A1 and B1 were the absorbance values measured at the wavelength of 340 nm. A2 and B2 were the absorbance values measured at the wavelength of 340 nm after reacting for 30 min at 37 °C.
Wuhan Dangang Biotechnology Co., Ltd. (Wuhan, China) was commissioned to synthesize the peptides. […] With captopril as the positive control, the ACE inhibition rate and IC50 of the above synthetic peptides were determined according to the method of Section 2.5.

T1 sequence (P12821 30-1306, species assumed): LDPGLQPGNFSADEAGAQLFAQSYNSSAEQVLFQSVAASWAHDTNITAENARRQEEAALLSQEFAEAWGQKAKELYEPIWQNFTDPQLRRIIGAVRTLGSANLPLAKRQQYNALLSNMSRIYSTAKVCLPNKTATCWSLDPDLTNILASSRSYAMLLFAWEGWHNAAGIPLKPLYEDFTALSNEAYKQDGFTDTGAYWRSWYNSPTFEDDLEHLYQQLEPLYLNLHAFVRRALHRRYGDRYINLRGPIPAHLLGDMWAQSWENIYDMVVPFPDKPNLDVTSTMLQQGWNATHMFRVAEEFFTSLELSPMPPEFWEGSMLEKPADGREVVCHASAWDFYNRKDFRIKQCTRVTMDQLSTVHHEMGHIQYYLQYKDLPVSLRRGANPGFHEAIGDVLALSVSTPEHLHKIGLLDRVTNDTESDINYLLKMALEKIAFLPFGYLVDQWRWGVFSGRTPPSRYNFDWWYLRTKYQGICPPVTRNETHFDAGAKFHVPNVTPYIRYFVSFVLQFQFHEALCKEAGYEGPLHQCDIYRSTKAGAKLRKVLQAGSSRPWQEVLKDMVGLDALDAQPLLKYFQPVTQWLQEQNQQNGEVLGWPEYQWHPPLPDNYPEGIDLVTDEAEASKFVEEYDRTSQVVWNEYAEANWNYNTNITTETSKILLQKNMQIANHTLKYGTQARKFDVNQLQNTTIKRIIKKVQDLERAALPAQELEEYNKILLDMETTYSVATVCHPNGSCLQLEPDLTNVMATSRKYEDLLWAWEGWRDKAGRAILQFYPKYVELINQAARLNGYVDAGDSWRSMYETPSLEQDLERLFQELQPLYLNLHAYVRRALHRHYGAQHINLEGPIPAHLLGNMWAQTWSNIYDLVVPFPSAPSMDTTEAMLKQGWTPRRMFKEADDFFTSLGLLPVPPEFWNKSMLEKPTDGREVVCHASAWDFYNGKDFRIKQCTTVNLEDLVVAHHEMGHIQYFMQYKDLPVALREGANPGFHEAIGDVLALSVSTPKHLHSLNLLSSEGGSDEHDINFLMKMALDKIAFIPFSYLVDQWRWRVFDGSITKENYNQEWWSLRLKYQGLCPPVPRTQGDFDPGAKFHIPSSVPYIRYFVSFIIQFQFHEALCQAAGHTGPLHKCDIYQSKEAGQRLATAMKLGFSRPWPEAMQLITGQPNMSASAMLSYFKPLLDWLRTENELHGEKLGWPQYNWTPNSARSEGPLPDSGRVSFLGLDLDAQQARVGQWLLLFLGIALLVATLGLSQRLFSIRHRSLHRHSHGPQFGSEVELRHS

Molecule	Inhibitory effect as % of the positive control [%]	IC50 [µM]	Inhibition Rate of ACE
FAGGP [FAGGP]	87.04	29.2 ± 1.37	85.92 ± 1.81 ^c %
C[C@H](NC(=O)[C@@H](N)Cc1c[nH]c2ccccc12)C(=O)N[C@@H](CC(=O)O)C(=O)N1CCC[C@H]1C(=O)O [WADP] (H-WADP-OH; N-terminus and C-terminus assumed)	84.13	41.3 ± 0.7	83.04 ± 0.68 ^d %
FHPGY [FHPGY]	92.60	14.8 ± 0.34	91.41 ± 1.01 ^b %
N[C@@H](Cc1ccccc1)C(=O)N[C@@H](CC(=O)O)C(=O)NCC(=O)N[C@@H](Cc1ccc(O)cc1)C(=O)O [FDGY] (H-FDGY-OH; N-terminus and C-terminus assumed)	81.53	91.5 ± 1.09	80.48 ± 0.84 ^e %

— article PMC12346769, “Activity Analysis and Inhibition Mechanism of Four Novel Angiotensin I-Converting Enzyme Inhibitory Peptides Prepared from Flammulina velutipes by Enzymatic Hydrolysis” (Foods, 2025)
